{
  "source": "patent US20220160703A1",
  "about": "“TUMOR-SELECTIVE COMBINATION THERAPY” (The Board of Regents of The University of Texas System, priority 2019, published 2022)",
  "system": "NQO1 negative cell lines Panc02 and B16",
  "assay": "Cell viability/survival of NQO1 negative murine tumor lines (SRB)",
  "type": "cell-based",
  "conditions": "β-lap 0-8 μM, SRB 4 days later",
  "protocol": "(FIG. 1A) NQO1 positive tumor cell lines MC38, TC-1 and Ag104Ld and NQO1 negative cell lines Panc02 and B16 grown in 48-well plates were treated with β-lap (0-8 μM) for a 3 hr followed by washing and replacing medium. Cell viability was determined by Sulforhodamine B (SRB) Assay 4 days later. […] (FIG. 1C) MC38 cells with CRISPR-based NQO1 Knockout (MC38 NQO1KO #5) planted in 96-well plates were exposed to β-lap for 3 hr and cell survival was assessed 48 hr later. […] (FIG. 1E) MC38 cells were exposed to a lethal dose of β-lap (4 μM) for indicated times, then stained with 7-AAD and Annexin V followed by flow cytometry analysis. […] (FIG. 1H) MC38 and B16 NQO1 #1 cells were exposed to β-lap for a 3 hr. Catalase (1000 U/ml) was added and cell survival was assessed 48 hr later. […] Tumor growth was monitored twice a week.\n(FIG. 8A) NQO1 expression in multiple murine tumor lines was immunoblotted as indicated. […] Drugs were removed and survival assessed 5 days later. (FIG. 8C) Relative H2O2 levels were assessed in various cells treated with β-lap for 3 h at the indicated doses using CellRox-Glo. […] (FIG. 8D) TC-1 cells exposure to β-lap for 12 h, later PARP-1 and Caspase-3 levels were analyzed by western blotting assay. […]\n(FIGS. 14A-C) NQO1 cells MC38 (A) and TC-1 (B) and NQO1^− cells B16 (C) were treated for 2 h with various doses of IB-DNQ±DIC (50 μM). Drugs were removed and survival assessed 6 days later. […]",
  "data": [
    {"smiles": "CC1(C)CCC2=C(O1)c1ccccc1C(=O)C2=O", "note": "[β-lap, β-lapachone]", "values": [
      {"measurement": "response to 3 h β-lap exposure (cell viability)", "value": "resistant"}
    ]}
  ]
}
